Measured values reported in patent US9994551B2, “Pyridazine derivatives as RORc modulators” (Genentech, Inc., priority 2015, dated 2018).

The compounds below were run against T1, RORc ligand binding domain (Homo sapiens, UniProt P51449) (assay: In vitro RORc ligand binding assay (25-[3H]hydroxycholesterol displacement, filter binding)).
T1 construct: host or cells: E. coli
T1 sequence (P51449 269-508 limits assumed): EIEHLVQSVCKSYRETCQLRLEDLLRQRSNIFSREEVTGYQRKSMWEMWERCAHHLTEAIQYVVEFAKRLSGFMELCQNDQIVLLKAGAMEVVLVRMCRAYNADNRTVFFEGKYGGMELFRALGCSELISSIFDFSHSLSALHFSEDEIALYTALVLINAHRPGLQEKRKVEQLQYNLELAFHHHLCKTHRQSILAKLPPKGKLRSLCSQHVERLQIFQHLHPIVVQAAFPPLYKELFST

Compound | IC50 [nM]
CC1(C)[C@H]2CC[C@]1([C@H]1CCCN(C(=O)NCC3(O)COC3)C1)c1nnc(-c3c(F)cccc3F)cc12 (stereo in doubt) [Compound 153, 3-[5-(2,6-difluorophenyl)-11,11-dimethyl-3,4-diazatricyclo[6.2.1.02,7]undeca-2,4,6-trien-1-yl]-N-[(3-hydroxyoxetan-3-yl)methyl]piperidine-1-carboxamide] | 110
CC[C@@H](O[C@@]12CC[C@@H](c3cc(-c4c(F)cccc4F)nnc31)C2(C)C)C(=O)NCC(=O)N(C)C [Compound 104, (R)-2-(((5S,8R)-3-(2,6-difluorophenyl)-9,9-dimethyl-5,6,7,8-tetrahydro-5,8-methanocinnolin-8-yl)oxy)-N-(2-(dimethylamino)-2-oxoethyl)butanamide] | 82.9
CC1(C)[C@H]2CC[C@]1([C@H]1CCCN(c3cc[nH]c(=O)c3)C1)c1nnc(-c3c(F)cccc3F)cc12 [Compound 172, 4-[3-[5-(2,6-difluorophenyl)-11,11-dimethyl-3,4-diazatricyclo[6.2.1.02,7]undeca-2,4,6-trien-1-yl]-1-piperidyl]-1H-pyridin-2-one] | 20

More lines, in order of falling IC50, values ahead:

IC50 [nM] | Compound
37.7 | CNC(=O)N1CCO[C@H]([C@@]23CC[C@@H](c4cc(-c5c(F)cccc5F)nnc42)C3(C)C)C1 [Compound 69, (R)-2-((5R,8R)-3-(2,6-difluorophenyl)-9,9-dimethyl-5,6,7,8-tetrahydro-5,8-methanocinnolin-8-yl)-N-methylmorpholine-4-carboxamide]
15 | CC(=O)N1CCN(C)[C@H]([C@@]23CC[C@@H](c4cc(-c5c(F)cccc5F)nnc42)C3(C)C)C1 [Compound 177, 1-[3-[5-(2,6-difluorophenyl)-11,11-dimethyl-3,4-diazatricyclo[6.2.1.02,7]undeca-2,4,6-trien-1-yl]-4-methyl-piperazin-1-yl]ethanone]
6.9 | COC(=O)N1CCC[C@H]([C@@]23CC[C@@H](c4cc(-c5c(F)cccc5F)nnc42)C3(C)C)C1 [Compound 99, (R)-methyl 3-((5R,8R)-3-(2,6-difluorophenyl)-9,9-dimethyl-5,6,7,8-tetrahydro-5,8-methanocinnolin-8-yl)piperidine-1-carboxylate]
